Measurements as given in US9738604B2, “Ethynylbenzene derivatives” (Duke University, priority 2010, dated 2017).
Converted amounts (≈) assume the structure as drawn. Like-named read-outs stand apart in the source and are kept apart here. Each block holds one molecule with its values, some of them ahead of it.

What was measured:
P. aeruginosa (PAO1) = test: MIC, P. aeruginosa; assay type: cell-based; conditions: for MIC P. aeruginosa (PAO1): 22 hours at 37° C., MTT; for MIC: Pseudomonas aeruginosa, PAO1, 22 h, read-out: MIC P. aeruginosa (PAO1)
[1] = test system: Acinetobacter Baumannii multidrug-resistant strain (MDR A.b. Isolate); test: Disk diffusion assay, multidrug-resistant strain; assay type: cell-based; parameters: key to diameter of the growth inhibition, MDR A.b. Isolate: A: no detectable inhibition; B: 6-10 mm; C: 11-15 mm; D: ≧16; conditions: 2 μg of compound per disc, disc 6 mm in diameter; for zone of inhibition at 2 µg/disc: Acinetobacter baumannii, read-out: diameter of the growth inhibition, MDR A.b. Isolate
[2] = test system: Acinetobacter Baumannii antibiotic susceptible strain (Sus. A.b. Isolate); test: Disk diffusion assay, antibiotic susceptible strain; assay type: cell-based; parameters: key to diameter of the growth inhibition, Sus. A.b. Isolate: A: no detectable inhibition; B: 6-10 mm; C: 11-15 mm; D: ≧16; conditions: 2 μg of compound per disc, disc 6 mm in diameter; for zone of inhibition at 2 µg/disc: Acinetobacter baumannii, read-out: diameter of the growth inhibition, Sus. A.b. Isolate
E. coli W3110 = test: microbe, parasite or virus in culture; assay type: cell-based; conditions: for MIC: Escherichia coli, W3110, 22 h, read-out: MIC E. coli W3110
E. coli W3110PA = test: microbe, parasite or virus in culture; assay type: cell-based; conditions: for MIC E. coli W3110PA: E. coli with lpxC of P. aeruginosa, 22 hours at 37° C., MTT; for MIC: Escherichia coli, W3110PA, 22 h, read-out: MIC E. coli W3110PA
N. gonorrhoeae 35/02 [3] = test: MIC, N. gonorrhoeae drug-resistant strain; assay type: cell-based; conditions: drug-resistant strain 35/02; for MIC: Neisseria gonorrhoeae
N. gonorrhoeae FA19 = test: MIC, N. gonorrhoeae drug-sensitive strain; assay type: cell-based; conditions: for MIC: Neisseria gonorrhoeae, read-out: MIC N. gonorrhoeae FA 19
E. coli W3110RL = test: microbe, parasite or virus in culture; assay type: cell-based; conditions: for MIC E. coli W3110RL: E. coli with lpxC of R. leguminosarum, 22 hours at 37° C., MTT; for MIC: Escherichia coli, W3110RL, 22 h, read-out: MIC E. coli W3110RL
N. gonorrhoeae 35/02 [4] = conditions: resistance profile of strain 35/02; cited from earlier work

Molecule: C[C@@H](O)[C@H](NC(=O)c1ccc(C#CC#Cc2ccc(N)cc2)cc1)C(=O)NO [CPD-011, (2S,3R)-2-{4′-[(4″-aminophenyl)buta-1′,3′-diynyl]benzamido}-1,3-dihydroxybutanamide]
MIC P. aeruginosa (PAO1) (P. aeruginosa (PAO1)): A (<1 μg/mL) | diameter of the growth inhibition, MDR A.b. Isolate [1]: A | diameter of the growth inhibition, Sus. A.b. Isolate [2]: A | MIC E. coli W3110 (E. coli W3110): A (key: A: <1 μg/mL; B: 1-10 μg/mL; C: 11-50 μg/mL; D: 51-100 μg/mL; E: >100 μg/mL) | MIC E. coli W3110PA (E. coli W3110PA): A (<1 μg/mL) | MIC N. gonorrhoeae 35/02 (N. gonorrhoeae 35/02 [3]): D (5-7 μg/mL) | MIC N. gonorrhoeae FA 19 (N. gonorrhoeae FA19): C (2-4 μg/mL) | MIC E. coli W3110RL (E. coli W3110RL): B (1-10 μg/mL)

Molecule: C[C@@H](O)[C@H](NC(=O)c1ccc(C#CC#Cc2cccc(N)c2)cc1)C(=O)NO [CPD-012, (2S,3R)-2-{4′-[(3″-aminophenyl)buta-1′,3′-diynyl]benzamido}-1,3-dihydroxybutanamide]
MIC P. aeruginosa (PAO1) (P. aeruginosa (PAO1)): A (<1 μg/mL) | diameter of the growth inhibition, MDR A.b. Isolate [1]: A | diameter of the growth inhibition, Sus. A.b. Isolate [2]: A | MIC E. coli W3110 (E. coli W3110): A (key: A: <1 μg/mL; B: 1-10 μg/mL; C: 11-50 μg/mL; D: 51-100 μg/mL; E: >100 μg/mL) | MIC E. coli W3110PA (E. coli W3110PA): A (<1 μg/mL) | MIC E. coli W3110RL (E. coli W3110RL): B (1-10 μg/mL)

Molecule: C[C@@H](O)[C@H](NC(=O)c1ccc(C#CC#Cc2ccccc2N)cc1)C(=O)NO [CPD-013, (2S,3R)-2-{4′-[(2″-aminophenyl)buta-1′,3′-diynyl]benzamido}-1,3-dihydroxybutanamide]
MIC P. aeruginosa (PAO1) (P. aeruginosa (PAO1)): B (1-10 μg/mL) | diameter of the growth inhibition, MDR A.b. Isolate [1]: A | diameter of the growth inhibition, Sus. A.b. Isolate [2]: A | MIC E. coli W3110 (E. coli W3110): A (key: A: <1 μg/mL; B: 1-10 μg/mL; C: 11-50 μg/mL; D: 51-100 μg/mL; E: >100 μg/mL) | MIC E. coli W3110PA (E. coli W3110PA): A (<1 μg/mL) | MIC N. gonorrhoeae 35/02 (N. gonorrhoeae 35/02 [3]): C (2-4 μg/mL) | MIC N. gonorrhoeae FA 19 (N. gonorrhoeae FA19): B (0.1-1 μg/mL) | MIC E. coli W3110RL (E. coli W3110RL): C (11-50 μg/mL)

Molecule: CC(C)(O)[C@H](NC(=O)c1ccc(C#CC#Cc2ccc(N)cc2)cc1)C(=O)NO [CPD-037, (2S)-2-({4′-[4′-(4′-aminophenyl)buta-1′,3′-diyn-1-yl]phenyl}formamido)-N,3′-dihydroxy-3′-methylbutanamide]
MIC (P. aeruginosa (PAO1)): < 1 µg/mL | zone of inhibition at 2 µg/disc [1]: 6 to 10 mm | zone of inhibition at 2 µg/disc [2]: 11 to 15 mm | MIC (E. coli W3110): < 1 µg/mL | MIC (E. coli W3110PA): < 1 µg/mL | MIC (E. coli W3110RL): 1 to 10 µg/mL (≈ 2.55 to 25.5 µM)

Molecule: CC(C)(N)[C@H](NC(=O)c1ccc(C#CC#Cc2ccc(N)cc2)cc1)C(=O)NO [CPD-040, (2S)-3-amino-2-({4′-[4′-(4′-aminophenyl)buta-1′,3′-diyn-1-yl]phenyl}formamido)-N-hydroxy-3-methylbutanamide]
MIC (P. aeruginosa (PAO1)): < 1 µg/mL | zone of inhibition at 2 µg/disc [1]: 6 to 10 mm | zone of inhibition at 2 µg/disc [2]: 6 to 10 mm | MIC (E. coli W3110): < 1 µg/mL | MIC (E. coli W3110PA): < 1 µg/mL | MIC (N. gonorrhoeae 35/02 [3]): 5 to 7 µg/mL (≈ 12.8 to 17.9 µM) | MIC (N. gonorrhoeae FA19): 2 to 4 µg/mL (≈ 5.12 to 10.2 µM) | MIC (E. coli W3110RL): 1 to 10 µg/mL (≈ 2.56 to 25.6 µM)

Molecule: C[C@](O)(c1ccc(O)cc1)[C@H](NC(=O)c1ccc(C#CC#Cc2ccc(N)cc2)cc1)C(=O)NO [CPD-051, 4-((4-aminophenyl)buta-1,3-diynyl)-N-((2S)-3-hydroxy-1-(hydroxyamino)-3-(4-hydroxyphenyl)-1-oxobutan-2-yl)benzamide]
MIC (P. aeruginosa (PAO1)): < 1 µg/mL | diameter of the growth inhibition, MDR A.b. Isolate [1]: A | diameter of the growth inhibition, Sus. A.b. Isolate [2]: A | MIC (E. coli W3110): < 1 µg/mL | MIC (E. coli W3110PA): < 1 µg/mL | MIC (E. coli W3110RL): 51 to 100 µg/mL (≈ 109 to 213 µM)

Molecule: C[C@@](O)(C(F)F)[C@H](NC(=O)c1ccc(C#CC#Cc2ccc(N)cc2)cc1)C(=O)NO [CPD-058, 4-((4-aminophenyl)buta-1,3-diynyl)-N-((2S,3S)-4,4-difluoro-3-hydroxy-1-(hydroxyamino)-3-methyl-1-oxobutan-2-yl)benzamide]
MIC (P. aeruginosa (PAO1)): < 1 µg/mL | zone of inhibition at 2 µg/disc [1]: 11 to 15 mm | zone of inhibition at 2 µg/disc [2]: 11 to 15 mm | MIC (E. coli W3110): < 1 µg/mL | MIC (E. coli W3110PA): < 1 µg/mL | MIC (E. coli W3110RL): < 1 µg/mL

MIC (N. gonorrhoeae 35/02 [3]): 2 to 4 µg/mL (≈ 5.12 to 10.2 µM) | MIC (N. gonorrhoeae FA19): 0.1 to 1 µg/mL (≈ 0.256 to 2.56 µM)
Molecule: CC(C)(N)[C@H](NC(=O)c1ccc(C#CC#Cc2ccccc2N)cc1)C(=O)NO [CPD-065, (S)-N-(3-amino-1-(hydroxyamino)-3-methyl-1-oxobutan-2-yl)-4-((2-aminophenyl)buta-1,3-diynyl)benzamide]

MIC (N. gonorrhoeae 35/02 [3]): 2 to 4 µg/mL (≈ 5.11 to 10.2 µM) | MIC (N. gonorrhoeae FA19): 0.1 to 1 µg/mL (≈ 0.255 to 2.55 µM)
Molecule: CC(C)(O)[C@H](NC(=O)c1ccc(C#CC#Cc2ccccc2N)cc1)C(=O)NO [CPD-066, (S)-4-((2-aminophenyl)buta-1,3-diynyl)-N-(3-hydroxy-1-(hydroxyamino)-3-methyl-1-oxobutan-2-yl)benzamide]

MIC (N. gonorrhoeae 35/02 [3]): 0.1 to 1 µg/mL (≈ 0.234 to 2.34 µM) | MIC (N. gonorrhoeae FA19): < 0.1 µg/mL
Molecule: C[C@@](O)(C(F)F)[C@H](NC(=O)c1ccc(C#CC#Cc2ccccc2N)cc1)C(=O)NO [CPD-067, 4-((2-aminophenyl)buta-1,3-diynyl)-N-((2S,3S)-4,4-difluoro-3-hydroxy-1-(hydroxyamino)-3-methyl-1-oxobutan-2-yl)benzamide]
zone of inhibition at 2 µg/disc [1]: 6 to 10 mm | zone of inhibition at 2 µg/disc [2]: 6 to 10 mm

Molecule: CN(C)[C@@H]1C(O)=C(C(N)=O)C(=O)[C@@]2(O)C(O)=C3C(=O)c4c(O)cccc4[C@@](C)(O)[C@H]3C[C@@H]12 [Tetracycline]
diameter of the growth inhibition, MDR A.b. Isolate [1]: A | zone of inhibition at 2 µg/disc [2]: 6 to 10 mm

Molecule: CO/N=C(\C(=O)N[C@@H]1C(=O)N2C(C(=O)O)=C(CSc3nc(=O)c(=O)[nH]n3C)CS[C@H]12)c1csc(N)n1 [ceftriaxone, reference compound]
diameter of the growth inhibition, MDR A.b. Isolate [1]: A | diameter of the growth inhibition, Sus. A.b. Isolate [2]: A | MIC (N. gonorrhoeae 35/02 [4]): 0.12 µg/mL (≈ 0.216 µM)

Molecule: C[C@@H](O)[C@H](NC(=O)c1ccc(C#Cc2ccc(CN3CCOCC3)cc2)cc1)C(=O)NO [drawing 321]
MIC (N. gonorrhoeae 35/02 [3]): 8 µg/mL (≈ 18.3 µM) | MIC (N. gonorrhoeae FA19): 8 µg/mL (≈ 18.3 µM)

Molecule: Polymyxin B
diameter of the growth inhibition, MDR A.b. Isolate [1]: B (6-10 mm) | diameter of the growth inhibition, Sus. A.b. Isolate [2]: B (6-10 mm)

Molecule: penicillin
MIC (N. gonorrhoeae 35/02 [4]): 6 µg/mL
